Series [1] has as its system SARS-CoV-2. Put plainly: microbe, parasite or virus in culture. The format is cell-based. The settings on record: for IC50: IFA, read-out: IC50, inhibition of SARS-CoV-2 infectivity.
In series [2] the test system is SARS-CoV-2. The series can be described thus: SARS-CoV-2 infection of HEK293-ACE2 cells (IFA). It is filed as cell-based. The settings on record: for anti-viral activity in secondary screen: 250 nM, pre-treated 24 hours, one day post-infection.
Series [3] relates to SARS-CoV-2. The format is cell-based. The settings on record: 250 nM, Vero E6 cells, 48 h.
Series [4] concerns SARS-CoV-2. Put plainly: microbe, parasite or virus in culture. The format is cell-based.
Series [5] concerns SARS-CoV-2. The following applies: for median effective dose (ED50), percentage of infected cells: HeLa-ACE2 cells.
Series [6] has as its system SARS-CoV-2. The format is cell-based. The following applies: hiPSC-CMs, 250 nM.
The subject of series [7] is hiPSC-CMs. The series can be described thus: Cardiomyocyte beating / in vitro cardiotoxicity in hiPSC-CMs. It is filed as cell-based, human. The following applies: 250 nM; for in vitro cardiotoxicity: hiPSC-CMs. The method, then: Thus, we used the human-induced pluripotent stem-cell-derived cardiomyocyte (hiPSC-CM) system for antiviral drug testing against SARS-CoV-2. […] Thus, this cardiomyocyte system is useful for antiviral drug testing against SARS-CoV-2. […] The inhibition of virus production by berzosertib was evaluated by quantifying the infectious virus (TCID50) in the supernatant at various time points (Figure 2B). […] Infection of cardiomyocytes with SARS-CoV-2 was confirmed by specific staining of cardiac troponin T (cTnT) and viral spike proteins (Figure 2E). Untreated SARS-CoV-2-infected cells had infection-mediated cell injury with disrupted troponin T fibers.

In series [8] the test system is SARS-CoV-2. Put plainly: microbe, parasite or virus in culture. The following applies: for IC50: Severe acute respiratory syndrome coronavirus 2, A549-ACE2, 24 h, 24 h, read-out: IC50, SARS-CoV-2 immunostaining signal. It is filed as cell-based.
Series [9] concerns IL6. The series can be described thus: IL6 gene expression in SARS-CoV-2-infected Vero E6 cells (RT-qPCR). It is filed as cell-based. (In qPCR the cycle at which signal appears reflects the starting amount.)
Series [10] relates to human primary lung cells. The series can be described thus: Toxicity in human primary lung cells. It is filed as cell-based.
The subject of series [11] is ATR. The arrangement: method as in vendor Selleckchem. The following applies: HT29 cells; ref vendor Selleckchem; read-out: IC50, ATR inhibition; cited from earlier work.
In series [12] the test system is SARS-CoV-2. Put plainly: microbe, parasite or virus in culture. The format is cell-based. The settings on record: Severe acute respiratory syndrome coronavirus 2, Calu-3 cells, read-out: IC50, SARS-CoV-2 viral titer.
For series [13], the system named is Calu-3 cells. The series can be described thus: Cell viability assay (MTT) in Calu-3 cells. It is filed as cell-based, human. How it is done: Calu-3 and A549-ACE2 were seeded in 96-well plates with 3.5 × 10^5 cells/ml, 100 μL per well, for 24 h. The compounds to be tested or pure DMSO as […] control were serially diluted in CoV infection medium (DMEM, supplemented with 1 % L-glu, 1 % P/S and 2 % FBS) to obtain 5-fold of the desired final concentrations. The growth medium was removed from the cells and replaced with 80 μl/well of fresh infection medium. Subsequently, 20 μL of the diluted compounds were added in quadruplicates for each concentration (i.e., 5-fold dilution to reach the final concentrations). Cells were incubated for 48 h at 37°C (5% CO2, 96 % rH). At 48 h post treatment, cell viability was measured on a Tecan Safire 2 plate reader using the CellTiter 96® Non-Radioactive Cell Proliferation Assay (MTT) (Promega) according to manufacturer’s instructions.

The subject of series [14] is CHK1 phosphorylation (pCHK1). The series can be described thus: CHK1 phosphorylation in Vero E6 cells (western blot). It is filed as cell-based. The method, then:
Cells were lysed in 50 mM Tris pH 7.4, 1% NP-40, 0.25% sodium deoxycholate, 1 mM EDTA, 150 mM NaCl, 1 mM Na3VO4, […], 1mM PMSF, 2 mg ml^-1 aprotinin, 2 mg ml^-1 leupeptin and 0.7 mg ml^-1 pepstatin or Laemmli Sample Buffer (Bio Rad, Hercules, CA). Cell lysates were resolved by SDS-PAGE using 10% gradient gels and transferred to a 0.2 μm PVDF membrane. Subsequently, the membranes were blocked with 5% skim milk and 0.1% Tween-20 in 1x TBST (0.1% Tween-20) at room temperature for 1 hour. The membranes were then probed with respective monoclonal antibodies and detected by Thermo Scientific SuperSignal West Femto Maximum Sensitivity Substrate.
Background: Immunoblotting shows a protein as a band on a membrane.

The subject of series [15] is MERS-CoV. Put plainly: microbe, parasite or virus in culture. It is filed as cell-based. The settings on record: Middle East respiratory syndrome-related coronavirus, Calu-3, read-out: IC50, MERS-CoV viral titer.
A short description of series [16]: HeLa-ACE2 uninfected host cell cytotoxicity counter screen. The format is cell-based. The following applies: human, uninfected HeLa-ACE2 cells; read-out: median cytotoxic concentration (CC50). How it is done:
Compounds were acoustically transferred into 1,536-well μclear plates (Greiner Part. No. 789091). HeLa-ACE2 cells were maintained as described for the infection assay and seeded in the assay-ready plates at 400 cells/well in DMEM with 2% FBS and plates were incubated for 24 hours at 37°C 5% CO2. To assess cell viability, the Image-iT DEAD green reagent (Thermo Fisher) was used according to manufacturer instructions. Cells were fixed with 4% paraformaldehyde, and counterstained with DAPI.
On the technique in general: A counterscreen serves to expose hits that act by an unwanted route or on another target.

The subject of series [17] is SARS-CoV-2. The series can be described thus: SARS-CoV-2 replication kinetics in Vero E6 cells (RT-qPCR genome copies, western blot). The settings on record: for viral genome and protein production: from 8 h onward. The format is cell-based.
Details of series [18]: method as in earlier work. The settings on record: cancer setting, phases 1 and 2, ref Konstantinopoulos et al., 2020, Yap et al., Thomas et al., 2018; cited from earlier work.
Series [19] has as its system SARS-CoV-1. The series can be described thus: microbe, parasite or virus in culture. The settings on record: Severe acute respiratory syndrome coronavirus, Calu-3, read-out: IC50, SARS-CoV-1 viral titer. The format is cell-based.
Setting [20] is: Severe acute respiratory syndrome coronavirus 2, Vero C1008, Vero E6 cells.

Read-outs that look alike come from different tables or passages of the source.

As usually defined, the IC50 is the concentration that inhibits the measured activity by half. In the case of `CNC(=O)c1cccc(-c2ccc3c(N4CCOC[C@@H]4C)nc(N4CCOC[C@@H]4C)nc3n2)c1` [AZD2014, Vistusertib], the IC50 is 34 nM in series [1] (setting [20]) and less than 25 nM in series [1] (Vero E6 cells). In addition, in series [2], the “anti-viral activity in secondary screen” value was “not exhibited potent anti-viral activity”. Besides, the “antiviral activity (prevention of viral CPE) in primary screen” value (“antiviral activity … in primary screen” below) in series [3] was “antiviral activity”.
Regarding `CNCc1ccc(-c2cc(-c3nc(-c4ccc(S(=O)(=O)C(C)C)cc4)cnc3N)on2)cc1` [Berzosertib], the “inhibition of SARS-CoV-2” value in series [4] was “effective”. Besides, the half-maximal inhibitory concentration (IC50) in [4] (Severe acute respiratory syndrome coronavirus 2, human primary lung cells) was 40 nM; in [1] (Vero E6 cells) it was less than 25 nM; in [8] it was 240 nM; in series [8] (A549-ACE2 cells, […]) it was 220 ± 30 nM; in series [11], 19 nM; in series [12], 480 nM. For the same compound, the half-inhibitory concentration (IC50) turned out to be 290 nM in series [15] and 320 nM in [19]. Moreover, the “median effective dose (ED50), percentage of infected cells” value in series [5] came to 200 nM. For the same compound, in [5] (SARS-CoV-2-infected HeLa-ACE2 cells), the “total cells per well (cytotoxic effect at active concentrations)” value is reported as “did not change”. Besides, the “virus production (infectious virus, TCID50, in supernatant)” value in [6] was “significantly reduced”. For the same compound, the “apoptotic cell death associated with viral infection” value in [6] (cleaved caspase-3) is recorded as “significantly reduced”. Moreover, the in vitro cardiotoxicity entry in series [7] is “No in vitro cardiotoxicity”. For the same compound, in series [8], the “combination effect (isobologram, Compusyn)” value is “synergistic”. Besides, the “selectivity index (SI)” value in series [8] (A549-ACE2 cells) turned out to be 204. Moreover, the “inhibition of virus replication” value in series [2] (100 nM, 48 hpi) is “complete inhibition”. Also, in [9], the “viral-mediated induction of pro-inflammatory gene IL6” value is “reduced”. The “concentration with detectable toxicity” value in series [10] and in series [13] was more than 50 µM throughout. In addition, the “antiviral activity … in primary screen” value in series [3] is “antiviral activity”. Also, in series [14], the “phosphorylation of CHK1” value is on record as “reduced”. In series [16], the CC50 at 24 h is 3890 nM. Further, the “number of viral genome copies at 2 hpi (entry)” value in series [17] (2 hpi) is listed as “not affected”. The “viral genome and protein production” value in [17] was “inhibited”; in series [17] (listed as berzosertib) it was “significantly reduced”. Moreover, the “tolerability in oncology clinical studies” value in series [18] is given as “well tolerated”.
As to `Cn1c(=O)n(-c2ccc(C(C)(C)C#N)cc2)c2c3cc(-c4cnc5ccccc5c4)ccc3ncc21` [Dactolisib], the “virus production (infectious virus, TCID50, in supernatant)” value in series [6] is recorded as “inhibited viral production”. In addition, the “cardiomyocyte beating (beats per minute)” value in series [7] (SARS-CoV-2-infected hiPSC-CMs) is reported as “affected the cardiomyocyte functional beating”. In addition, the in vitro cardiotoxicity entry in [7] is listed as “had cardiotoxicity”. For the same compound, the 50% inhibitory concentration (IC50) in [1] (setting [20]) worked out at 111 nM.
With `Cc1cn(-c2cc(NC(=O)c3ccc(C)c(Nc4nccc(-c5cccnc5)n4)c3)cc(C(F)(F)F)c2)cn1` [Nilotinib], in series [1] (setting [20]), the IC50 is 50 to 125 nM. In series [2], the “anti-viral activity in secondary screen” value is “not exhibited potent anti-viral activity”. In [3], the “antiviral activity … in primary screen” value is reported as “antiviral activity”.
Consider `CCC(CC)COC(=O)[C@H](C)N[P@](=O)(OC[C@H]1O[C@@](C#N)(c2ccc3c(N)ncnn23)[C@H](O)[C@@H]1O)Oc1ccccc1` [Remdesivir], for which, in series [5], the “median effective dose (ED50), percentage of infected cells” value was determined as 124 nM. Further, the half-maximal inhibitory concentration (IC50) in series [8] stood at 160 nM; in series [8] (A549-ACE2 cells, […]), 200 nM; in series [12] it was 150 nM. The CC50 at 24 h in series [16] is more than 10000 nM.
`Nc1ccc(-c2ccc3ncc4ccc(=O)n(-c5cccc(C(F)(F)F)c5)c4c3c2)cn1` [Torin 2]: in series [1] (Vero E6 cells), the half-inhibitory concentration (IC50) is less than 25 nM. Further, in [3], the “antiviral activity … in primary screen” value was “antiviral activity”.
For `CN1CCN(Cc2ccc(-c3cnc4[nH]cc(-c5ccc6[nH]ccc6c5)c4c3)cc2)CC1` [URMC-099], the IC50 in series [1] (setting [20]) fell in the range of 50 to 125 nM. For the same compound, in series [3], the “antiviral activity … in primary screen” value was “antiviral activity”.
The corresponding values for `CC(C)(O)CNc1ncc(-c2ccnc(Nc3ccnc(Cl)c3)n2)c(CC2CC2)n1` [VPS34-IN1] are 50 to 125 nM and “antiviral activity”.
Take `COc1cc2c(Nc3ccc(NC(=O)c4ccccc4)cc3)ncnc2cc1OCCCN1CCOCC1` [ZM 447439]: in series [3], the “antiviral activity … in primary screen” value is on record as “antiviral activity”.
As for `FC(F)c1nc2ccccc2n1-c1nc(N2CCOCC2)nc(N2CCOCC2)n1` [ZSTK474], in series [3], the “antiviral activity … in primary screen” value was “antiviral activity”.
Regarding IFN-α, the “blocking of SARS-CoV-2 infection (IFA)” value in [1] (Vero E6 cells, 48 hpi, hydroxychloroquine and EIDD-2801 10 μM) was “effectively blocked”.

Source of the values: article PMC7969873 (Cell Reports, 2021).
